Results reported in patent US20200138764A1, “METHODS AND DEVICES FOR ACTIVATING ADIPOSE TISSUE” (The Procter & Gamble Company, priority 2018, published 2020).

Experiments:
human TRPM8 = test: TRPM8 Protocol-FLIPR Assay (intracellular Ca2+); assay type: cell-based; conditions: HEK-293 cells stably transfected with human TRPM8, Fluo-4 AM, relative to benchmark agonist WS-5
Description: To determine whether TRPM8 is activated, the intracellular calcium ion (Ca^2+) level was measured from transfected cells with the TRPM8 receptor sequence (SEQ ID NO: 1). HEK-293 (human embryonic kidney) cells stably transfected with human TRPM8 were grown in 15 mL growth medium (high glucose DMEM (Dulbecco's Modification of Eagle's Medium) supplemented with 10% FBS (fetal bovine serum), 100 μg/mL penicillin/streptomycin, 5 μg/mL blasticindin, and 100 μg/mL zeocin) in a 75 cm^2 flask for 3 days at 37° C. in a mammalian cell culture incubator (Forma Scientific Model 3110, Marietta, Ohio) set at 5% CO2. Cells were detached with addition of 2 mL of trypsin-EDTA buffer (GIBCO® 25200, Invitrogen, Grand Island, N.Y.) for about 2-3 min. Trypsin was inactivated by addition of 8 mL growth medium. Cells were transferred to a 50 mL tube and centrifuged at 850 rpm for 3 minutes to remove medium. After centrifugation, a pellet of cells was formed in the bottom of the tube separating them from the supernatant solution. The supernatant was discarded and the cell pellet was suspended in 1 mL of fresh growth medium to which 5 μL (12.5 μg) of Fluo-4 AM (Molecular Probes, Inc., Eugene, Oreg.) calcium indicator was added and incubated for 30 min with gentle shaking. Fluo-4 AM is a fluorescent dye used for quantifying cellular Ca^2+ concentrations in the 100 nM to 1 μM range. At the end of 30 minutes, 45 mL of assay buffer (1×HBSS (Hank's Balanced Salt Solution), 20 mM HEPES (4-(2-Hydroxyethyl)-1-piperazineethanesulfonic acid)) was added to wash cells and the resulting mixture was then centrifuged at 850 rpm for 3 minutes at 20° C. to remove excess buffer and Fluo-4 AM calcium indicator.
The pelleted cells were re-suspended in 10 mL assay buffer and 90 μL aliquots (˜50,000 cells) per well delivered to a 96-well assay plate containing 10 μL of test compounds (1 mM in assay buffer, final concentration 100 μM) or buffer control and incubated at room temperature for 30 minutes. After 30 minutes, a plate (Falcon 353219, Corning Corning N.Y.) was placed into a fluorometric imaging plate reader (FLIPR384 from Molecular Devices, Sunnyvale, Calif.) and basal fluorescence recorded (excitation wave length 488 nm and emission wave length 510 nm). Then 20 μL of 100 mM of TRPM8 agonist WS5 coolant in the assay buffer was added and fluorescence recorded. For determining the direct effect of test compounds on TRPM8, fluorescence was measured immediately after addition of each compound (TABLE 1). Additional discussion of the FLIPR method can be found in Smart et al., Characterization using FLIPR of human vanilloid VR1 receptor pharmacology, European Journal of Pharmacology 417, 51-58 (2001) and Liu et al., Development and validation of a platelet calcium flux assay using a fluorescent imaging plate reader, Analytical Biochemistry 357, 216-224 (2006).
The magnitude of the fluorescence of the active-treated cells was compared to the magnitude of the fluorescence from a benchmark agonist (WS-5), as described above. The percentage of fluorescence as a function of active dose was plotted and a sigmoidal curve was generated. Curve fitting from this dose-response curve yielded the value for TRPM8 IC50 in nM.
TRPM8 activation was determined by measuring intracellular calcium ion (Ca^2+) level from transfected cells with the TRPM8 receptor gene, as described in EXAMPLE 1, the results of which are shown in TABLE 1. IC50 values are provided in column 3 of TABLE 1, which measured the concentration of activating compound needed to reduce intracellular [Ca^2+] by 50%. […]

adipocytes = test: Real Time PCR analysis of adipocytes, in vitro; assay type: cell-based, human; conditions: Real Time PCR, relative to untreated control = 1
Description: For Real Time PCR analysis of adipocytes, cells from cultures grown in 24 well plates were collected. RNA was isolated using RNeasy Kit (Cat 74104, Qiagen, Germantown, Md.) using manufacturer's protocol. RNA was quantitated using the Nanodrop 1000 (Thermofisher, Waltham, Mass.). cDNA formation was carried out using PowerUp SYBR™ Green Master Mix and real time PCR carried out on QuantStudio 6 machine (ThermoFisher, Waltham, Mass.) per manufacturer protocol. ΔΔCT analysis was done using the Expression Suite software (ThermoFisher) purchased with the instrument.
TABLE 2 used Real Time PCR to determine which proteins were expressed in adipocytes upon treatment with activating compounds. […] Real Time PCR values were relative to a control sample that was not treated with any activating compounds. […] In WS-5 and Menthol, no Real Time PCR value was over 2.0, which indicated only slight changes in mRNA expression.

Row | IC50 (human TRPM8) | SMILES | Relative Expression of mRNA in Adipocytes: 18S (adipocytes) | Relative Expression of mRNA in Adipocytes: ACADM (adipocytes) | Relative Expression of mRNA in Adipocytes: CPT1A (adipocytes) | Relative Expression of mRNA in Adipocytes: FASN (adipocytes) | Relative Expression of mRNA in Adipocytes: GAPDH (adipocytes) | Relative Expression of mRNA in Adipocytes: PPARGC1A (adipocytes) | Relative Expression of mRNA in Adipocytes: PRDM16 (adipocytes) | Relative Expression of mRNA in Adipocytes: UCP-1 (adipocytes)
1 | 0.002 µM | CC(C)[C@@H]1CC[C@@H](C)C[C@H]1C(=O)NC[C@@H](NC(=O)[C@H](C)N)c1ccccc1 [Formula III] | 1 | 1.75 | 1.7 | 1.85 | 1 | 0.8 | 0.6 | 
2 | 7 µM | CC1CCC(C(C)C)C(O)C1 (centres unmarked) [Menthol] | 1 | 1.45 | 1.35 | 1.45 | 1 | 2.0 | 0.75 | 1.7
3 | 2 µM | CCOC(=O)CNC(=O)[C@@H]1C[C@H](C)CC[C@H]1C(C)C [WS-5] | 0.85 | 1.45 | 1.5 | 2.0 | 1 | 1.7 | 1.3 | 1.5
